The text below walks through data of ChEMBL document CHEMBL1121754 (J Med Chem, 1981).

The nature of series [1]: Equilibrium constant for DNB complex formation. On the set-up: unit not given here.
The target in series [2] is 5-hydroxytryptamine receptor 2B (Rattus norvegicus, UniProt P30994). Nature of the series: Affinity against 5-hydroxytryptamine 2B receptor in the isolated rat stomach fundus. The settings on record: read-out: pA2 (converted). It counts as tissue-based.
Series [3] can be described thus: Partition coefficient (logP). Conditions: octanol/water. It counts as physicochemical.
For the next series, the species on record is Homo sapiens. Nature of the series: Human hallucinogenic activity relative to mescaline. It counts as functional.
The species named for another series is Oryctolagus cuniculus. Nature of the series: Hyperthermic potency in rabbit relative to DOM. It counts as functional.

SMILES strings stand for the structures. Some results are limits rather than exact numbers.

5-hydroxytryptamine receptor 2B, sequence (P30994 whole entry): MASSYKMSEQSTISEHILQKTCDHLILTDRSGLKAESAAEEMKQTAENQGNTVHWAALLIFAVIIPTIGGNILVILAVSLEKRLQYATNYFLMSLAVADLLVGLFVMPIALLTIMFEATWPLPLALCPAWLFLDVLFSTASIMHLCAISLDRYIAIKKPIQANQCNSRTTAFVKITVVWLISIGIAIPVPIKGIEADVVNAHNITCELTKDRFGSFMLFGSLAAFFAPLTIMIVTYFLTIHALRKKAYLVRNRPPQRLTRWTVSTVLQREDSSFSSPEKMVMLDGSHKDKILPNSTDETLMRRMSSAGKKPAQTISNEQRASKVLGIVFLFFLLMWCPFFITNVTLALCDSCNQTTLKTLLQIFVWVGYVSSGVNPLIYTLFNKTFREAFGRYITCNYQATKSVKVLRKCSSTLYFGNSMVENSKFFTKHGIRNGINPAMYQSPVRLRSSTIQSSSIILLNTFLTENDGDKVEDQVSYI

`COc1cccc(CC(C)N)c1` (stereo not drawn) gave a KDNB in series [1] of 0.96. In series [2], the Kb was 1200 nM.
`CC(N)Cc1ccc2c(c1)OCO2` (stereo not drawn) [TENAMFETAMINE] displayed a KDNB in series [1] of 0.68. Also, the logP in series [3] (read-out: logP) came to 1.63.
As for `COc1cc(OC)c(SC)cc1CC(C)N` (stereo not drawn), the Relative activity in the series filed under Homo sapiens is reported as 1; in the series listed under Oryctolagus cuniculus, 2.8. Moreover, the logP in series [3] (read-out: logP) stood at 2.22. Moreover, the Kb in series [2] was 1700 nM.
For the compound `COc1ccc(CC(C)N)cc1OC` (stereo not drawn), the Relative activity is reported as less than 1 in the series listed under Homo sapiens and <<0.3 in the series listed under Oryctolagus cuniculus. The compound also showed a KDNB in series [1] of 1.95. Besides, the figures for the logP in series [3] and in series [3] (read-out: logP) were 1.2 and 1, respectively. Further, the Kb in series [2] was 3550 nM.
With `COc1cc(OC)c(CC(C)N)cc1Br` (stereo not drawn), the Relative activity in the series listed under Homo sapiens is reported as 4; in the series listed under Oryctolagus cuniculus, 2.3. In addition, the logP in series [3] (read-out: logP) worked out at 2.61.
`CC(N)Cc1ccccc1` (stereo not drawn) gave a KDNB in series [1] of 0.55.
As to `COc1cc(Br)c(CC(C)N)cc1OC` (stereo not drawn), in series [3] (read-out: logP), the logP came out at 1.96. Further, in the series filed under Oryctolagus cuniculus, the Relative activity amounted to 3.4. In addition, the Kb in series [2] was 1780 nM.
Take `COc1ccc(CC(C)N)cc1` (stereo not drawn) [PARA-METHOXYAMPHETAMINE]: the Relative activity in the series listed under Homo sapiens stood at 4. Moreover, the KDNB in series [1] stood at 1.02. Besides, the logP in series [3] (read-out: logP) was 1.77. Further, in series [2], the Kb was 6920 nM.
Turning to `COc1cc(CC(C)N)c(OC)cc1Br` (stereo not drawn) [BROLAMFETAMINE], the logP in series [3] came to 2.54; in series [3] (read-out: logP), 2.58.
On to `COc1ccc(CC(C)N)c(OC)c1OC` (stereo not drawn), for which the Relative activity in the series listed under Homo sapiens is reported as less than 2; in the series filed under Oryctolagus cuniculus, <<0.3. This compound also returned a KDNB in series [1] of 1.7. The logP in series [3] (read-out: logP) was found to be 1.36. In series [2], the Kb was 8510 nM.
Turning to `COc1cc(CC(C)N)c(SC)cc1OC` (stereo not drawn), the logP in series [3] (read-out: logP) was 1.71. This compound also showed a Relative activity in the series filed under Oryctolagus cuniculus of 1.7.
Take `COc1cc(OC)c(OC)cc1CC(C)N` (stereo not drawn): the Relative activity in the series listed under Homo sapiens is listed as 17; in the series filed under Oryctolagus cuniculus, 11.8. Further, the KDNB in series [1] is 1.7. For the same compound, the logP in series [3] came out at 1.1; in series [3] (read-out: logP), 1.74. Further, the Kb in series [2] was 155 nM.
As for `COc1cc(C)c(CC(C)N)cc1OC` (stereo not drawn), the logP in series [3] (read-out: logP) was found to be 1.66. Also, the Relative activity in the series listed under Oryctolagus cuniculus came out at 0.5. The Kb in series [2] was 1380 nM.
In the case of `COc1cc(OC)c(CC(C)N)c(OC)c1` (stereo not drawn), the Relative activity in the series filed under Homo sapiens was found to be 10; in the series listed under Oryctolagus cuniculus, 3.1. This compound came in with a KDNB in series [1] of 2.09. The logP in series [3] (read-out: logP) is 1.57. For the same compound, in series [2], the Kb was 525 nM.
For `COc1cc(CC(C)N)cc(OC)c1OC` (stereo not drawn), in that order: 2.2, 3.6, 3.14, 1.48 and 2510 nM.
As to `COc1ccc(OC)c(CC(C)N)c1` (stereo not drawn), the values for the logP in series [3] and in series [3] (read-out: logP) were 1.72 and 1.88, respectively.
In the case of `COc1cc(CC(C)N)c(OC)cc1C` (stereo not drawn) [DOM], the figures for the Relative activity in the series listed under Homo sapiens and in the series listed under Oryctolagus cuniculus were 80 and 100, respectively. Further, the log partition coefficient (logP) is 2.24 in series [3] and 2.08 in series [3] (read-out: logP). In addition, the Kb in series [2] is 75.9 nM.
Turning to `COc1cc(OC)c(CC(C)N)cc1C` (stereo not drawn), the logP in series [3] (read-out: logP) worked out at 2.31. In the series filed under Oryctolagus cuniculus, this compound yielded a Relative activity of 0.9. Besides, the Kb in series [2] is 2450 nM.
In the case of `COc1cc(SC)c(OC)cc1CC(C)N` (stereo not drawn), the Relative activity in the series listed under Homo sapiens is given as 50; in the series listed under Oryctolagus cuniculus, 53.9. For the same compound, in series [3] (read-out: logP), the logP is 2.17.
Compound `COc1cccc(OC)c1CC(C)N` (stereo not drawn) gave a KDNB in series [1] of 1.49. Further, the Kb in series [2] is 8130 nM.
Take `COc1ccc(CC(C)N)c(OC)c1` (stereo not drawn): the values for the Relative activity in the series listed under Homo sapiens and in the series listed under Oryctolagus cuniculus were 5 and 2.5, respectively. In series [1], the KDNB was found to be 1.32. For the same compound, the logP in series [3] (read-out: logP) stood at 1.75. Besides, the Kb in series [2] is 2510 nM.

Usually logP stands for the decadic logarithm of the partition coefficient of the neutral form, usually between octanol and water.
